Here are results for one compound from paper PMC5729930, “Bitopic fluorescent antagonists of the A2A adenosine receptor based on pyrazolo[4,3-e][1,2,4]triazolo[1,5-c]pyrimidin-5-amine functionalized congeners” (MedChemComm, 2017).

The assay concerns the target 45 diverse receptors. Briefly: PDSP comprehensive off-target screen. It is filed as binding. The following applies: PDSP comprehensive screen at 45 targets. Here is the method:
. Off-target binding activities at 45 diverse receptors were determined by PDSP[25] for selected compounds: 6c and 13 (ESI ^†). […]; 1.92 μM, 5HT2B receptor. Thus, the primary amine precursor of the fluorescent conjugates 10–12 was not promiscuous in its interaction with other proteins, i.e. this chemical series is not associated with pan-assay interference compounds.[26]
Chinese hamster ovary (CHO) cells stably expressing the human A2AAR were cultured in Dulbecco's Modified Eagle Medium (Mediatech, Manassas, VA) supplemented with 10% fetal bovine serum, 100 units/ml penicillin, 100 µg/ml streptomycin and 2 µmol/ml glutamine. Cells were plated in 96-well plates in 100 µl medium. After 24 h, the medium was removed and cells were washed three times with 100 µl DMEM, containing 50 mM HEPES, pH 7.4. Cells were treated with antagonists (or medium for control) in the presence of rolipram (10 µM) and adenosine deaminase (3 units/ml) and 5 min later with agonist for 20 min. The reaction was terminated by removal of the supernatant, and cells were lysed upon the addition of 100 µl of lysis buffer (0.3% Tween-20). cAMP was measured using ALPHAScreen cAMP kits (PerkinElmer, Boston, MA) as instructed by the manufacturer.
Refer to: http://pdspdb.unc.edu for full list of comprehensive screen at 45 targets.
5HT2A serotonin receptor: […]

As to `N.Nc1nc2c(cnn2CCCc2ccc(OCc3ccc(S(=O)(=O)O)cc3)cc2)c2nc(-c3ccco3)nn12` [compound 13], the “Off-target interactions (Ki in radioligand binding inhibition < 10 µM)” value is “None detected”.
